Results published in publication PMC10710422, “Senescence-associated 13-HODE production promotes age-related liver steatosis by directly inhibiting catalase activity” (Nature Communications, 2023).

Assays:
[1] = target: T1, Recombinant mouse catalase protein (CAT) (Mus musculus, UniProt P24270); test: surface plasmon resonance (Biacore T200), steady-state affinity; assay type: binding
T1 construct: commercial recombinant protein, immobilised on CM5 chip
T1 sequence (P24270 2-527): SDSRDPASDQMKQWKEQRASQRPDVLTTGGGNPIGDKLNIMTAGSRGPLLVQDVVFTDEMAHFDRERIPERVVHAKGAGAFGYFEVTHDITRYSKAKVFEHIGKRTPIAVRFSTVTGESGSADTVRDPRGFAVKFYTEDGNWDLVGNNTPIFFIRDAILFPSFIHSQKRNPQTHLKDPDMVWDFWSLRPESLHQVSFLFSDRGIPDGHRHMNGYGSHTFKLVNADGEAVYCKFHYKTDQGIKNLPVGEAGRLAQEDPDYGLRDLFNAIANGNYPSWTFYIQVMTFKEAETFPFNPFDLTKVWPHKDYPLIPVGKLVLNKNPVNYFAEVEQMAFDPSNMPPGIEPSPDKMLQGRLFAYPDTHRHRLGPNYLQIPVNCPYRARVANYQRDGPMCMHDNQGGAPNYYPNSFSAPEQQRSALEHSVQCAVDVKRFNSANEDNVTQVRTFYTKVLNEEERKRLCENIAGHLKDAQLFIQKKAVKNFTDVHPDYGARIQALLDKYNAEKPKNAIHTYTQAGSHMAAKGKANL

[2] = target: T2, recombinant human CAT protein (Homo sapiens, UniProt P04040); test: catalase activity kit; assay type: biochemical; conditions: 20 min preincubation with 1 μM 13-HODE, room temperature not stated
T2 construct: commercial recombinant protein
T2 sequence (P04040 2-527): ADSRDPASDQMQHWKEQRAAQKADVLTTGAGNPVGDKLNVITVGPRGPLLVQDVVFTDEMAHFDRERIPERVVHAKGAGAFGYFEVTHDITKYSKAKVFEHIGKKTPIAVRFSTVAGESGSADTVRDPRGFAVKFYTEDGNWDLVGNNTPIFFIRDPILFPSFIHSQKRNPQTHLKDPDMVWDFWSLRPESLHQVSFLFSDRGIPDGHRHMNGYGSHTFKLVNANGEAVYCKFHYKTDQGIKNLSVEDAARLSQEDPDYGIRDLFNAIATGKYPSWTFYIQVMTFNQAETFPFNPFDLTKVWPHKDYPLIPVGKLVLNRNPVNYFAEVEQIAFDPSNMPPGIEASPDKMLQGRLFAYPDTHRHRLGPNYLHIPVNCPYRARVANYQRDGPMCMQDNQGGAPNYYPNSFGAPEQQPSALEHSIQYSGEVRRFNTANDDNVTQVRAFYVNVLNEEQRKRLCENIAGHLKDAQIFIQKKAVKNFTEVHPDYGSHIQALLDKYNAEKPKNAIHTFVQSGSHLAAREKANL

[3] = target: the molecule itself; test: cross-linking; primary mouse hepatocytes treated with or without 1 uM 13-HODE for 6 h, then 100 uM DSS crosslinker for 1 h before protein extraction; western blot for CAT tetramer and monomer; monomer to tetramer

Molecule: CCCCC[C@H](O)/C=C/C=C\CCCCCCCC(=O)O [13(S)-HODE]
- Kd [1]: 2420 nM

Molecule: CCCCCC(O)/C=C/C=C\CCCCCCCC(=O)O (stereo not drawn) [13-HODE]
- CAT activity at 1 μM [2]: incubated recombinant CAT protein with 13-HODE and found that it inhibited CAT activity in vitro

B1: Catalase (CAT) (enzyme, UniProt P24270 1-527, looked up)
chain: MSDSRDPASDQMKQWKEQRASQRPDVLTTGGGNPIGDKLNIMTAGSRGPLLVQDVVFTDEMAHFDRERIPERVVHAKGAGAFGYFEVTHDITRYSKAKVFEHIGKRTPIAVRFSTVTGESGSADTVRDPRGFAVKFYTEDGNWDLVGNNTPIFFIRDAILFPSFIHSQKRNPQTHLKDPDMVWDFWSLRPESLHQVSFLFSDRGIPDGHRHMNGYGSHTFKLVNADGEAVYCKFHYKTDQGIKNLPVGEAGRLAQEDPDYGLRDLFNAIANGNYPSWTFYIQVMTFKEAETFPFNPFDLTKVWPHKDYPLIPVGKLVLNKNPVNYFAEVEQMAFDPSNMPPGIEPSPDKMLQGRLFAYPDTHRHRLGPNYLQIPVNCPYRARVANYQRDGPMCMHDNQGGAPNYYPNSFSAPEQQRSALEHSVQCAVDVKRFNSANEDNVTQVRTFYTKVLNEEERKRLCENIAGHLKDAQLFIQKKAVKNFTDVHPDYGARIQALLDKYNAEKPKNAIHTYTQAGSHMAAKGKANL
notes: Catalase, mouse, endogenous in primary hepatocytes of C57BL/6 mice; Detected by western blot as monomer and tetramer after DSS cross-linking; source: endogenous, primary mouse hepatocytes (cross-linked in cells before protein extraction)
- stoichiometry N [3]: 4
